Here are results for seven compounds from patent publication US20150031675A1, “DIAZABICYCLO[3.3.1]NONANES, METHODS OF SYNTHESIS, AND USES THEREOF” (Targacept, Inc., priority 2012, published 2015).

Structures are written as SMILES. Read-outs that look alike come from different tables or passages of the source.

Assay [1] addresses T1, Human α4β2 nAChR (Homo sapiens, UniProt P17787+P43681).
T1 construct: expressed in transfected cells; host or cells: SH-EP1 clonal cells expressing human α4β2
Nature of the assay: Radioligand binding ([3H]nicotine) at α4β2 nAChR, membranes from SH-EP1/human α4β2 clonal cells. Here is the method:
Preparation of Membranes from SH-EP1/Human α4β2 Clonal Cells:
Cell pellets from 40 150 mm culture dishes were pooled, and homogenized by Polytron (Kinematica GmbH, Switzerland) in 20 milliliters of ice-cold preparative buffer. The homogenate was centrifuged at 48,000 g for 20 minutes at 4° C. The resulting pellet was re-suspended in 20 mL of ice-cold preparative buffer and stored at −20° C.
On the day of the assay, the frozen membranes were thawed and spun at 48,000×g for 20 min. The supernatant was decanted and discarded. The pellet was resuspended in Dulbecco's phosphate buffered saline (PBS, Life Technologies) pH 7.4 and homogenized with the Polytron for 6 seconds. Protein concentrations were determined using a Pierce BCA Protein Assay Kit, with bovine serum albumin as the standard (Pierce Chemical Company, Rockford, Ill.).
Incubation was terminated by rapid filtration on a multi-manifold tissue harvester (Brandel, Gaithersburg, Md.) using GF/B filters presoaked in 0.33% polyethyleneimine (w/v) to reduce non-specific binding. Tissue was rinsed 3 times in PBS, pH 7.4. Scintillation fluid was added to filters containing the washed tissue and allowed to equilibrate. Filters were then counted to determine radioactivity bound to the membranes by liquid scintillation counting (2200CA Tri-Carb LSC, Packard Instruments, 50% efficiency or Wallac Trilux 1450 MicroBeta, 40% efficiency, Perkin Elmer).
Data were expressed as disintegrations per minute (DPMs). Within each assay, each point had 2-3 replicates.

The target of assay [2] is Human α7 nAChR (UniProt P36544). Kind of assay: Radioligand binding ([3H]MLA) at α7 nAChR.
Where [3] appears, read: competition with 5 nM [3H]MLA; Ki by Cheng-Prusoff; read-out: Human α7 Ki.
Where [4] appears, read: read-out: Human α7 Ki; competition with 5 nM [3H]MLA; Ki by Cheng-Prusoff.

T1 sequence (P43681 29-627 limits assumed): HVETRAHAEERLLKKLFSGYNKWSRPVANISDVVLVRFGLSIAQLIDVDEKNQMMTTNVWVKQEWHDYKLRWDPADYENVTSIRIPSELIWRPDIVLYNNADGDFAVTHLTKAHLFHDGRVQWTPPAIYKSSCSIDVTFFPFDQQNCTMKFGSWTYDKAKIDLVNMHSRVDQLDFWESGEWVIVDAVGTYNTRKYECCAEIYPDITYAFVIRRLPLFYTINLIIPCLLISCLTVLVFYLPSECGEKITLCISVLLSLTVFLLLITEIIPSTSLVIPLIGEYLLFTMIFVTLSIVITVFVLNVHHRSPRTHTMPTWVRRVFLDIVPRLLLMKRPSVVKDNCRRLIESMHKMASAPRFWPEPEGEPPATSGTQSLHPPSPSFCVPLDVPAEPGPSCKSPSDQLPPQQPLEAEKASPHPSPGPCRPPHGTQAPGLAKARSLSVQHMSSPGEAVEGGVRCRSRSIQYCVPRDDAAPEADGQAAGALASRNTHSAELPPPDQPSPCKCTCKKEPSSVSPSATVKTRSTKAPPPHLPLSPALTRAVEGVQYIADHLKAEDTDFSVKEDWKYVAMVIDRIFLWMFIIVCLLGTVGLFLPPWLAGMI
T1 sequence (P17787 26-502): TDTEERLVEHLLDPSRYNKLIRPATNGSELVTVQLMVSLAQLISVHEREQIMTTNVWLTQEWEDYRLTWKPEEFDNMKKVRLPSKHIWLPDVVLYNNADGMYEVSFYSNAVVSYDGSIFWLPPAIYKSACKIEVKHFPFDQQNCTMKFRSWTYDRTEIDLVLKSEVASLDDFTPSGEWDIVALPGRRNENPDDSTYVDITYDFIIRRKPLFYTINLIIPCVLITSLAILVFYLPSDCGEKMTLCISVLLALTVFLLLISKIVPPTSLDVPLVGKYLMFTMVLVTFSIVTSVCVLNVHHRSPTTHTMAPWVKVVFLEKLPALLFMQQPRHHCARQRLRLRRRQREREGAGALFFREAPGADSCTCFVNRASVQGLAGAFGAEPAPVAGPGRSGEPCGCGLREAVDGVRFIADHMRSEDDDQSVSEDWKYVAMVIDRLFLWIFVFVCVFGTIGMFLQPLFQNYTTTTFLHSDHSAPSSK

A word on the Ki: it is a measure of affinity in units of concentration, obtained from inhibition or displacement. As for `c1cncc(N2CC3CC(C2)CN(C2CN4CCC2CC4)C3)c1` (centres unmarked), the Ki is 42 nM in assay [1] and 510 nM in assay [2] (setting [3]).

In the case of `c1cncc(N2CC3CC(C2)CN(C2CCCNC2)C3)c1` (centres unmarked), the results for the Ki in assay [1] (read-out: Human α4β2 Ki) and in assay [2] (setting [4]) were 0.79 nM and 62 nM, respectively.

As to `c1cncc(N2CC3CC(C2)CN(C2CCNCC2)C3)c1`, the figures for the Ki in assay [1] and in assay [2] (setting [3]) were 14 nM and 790 nM, respectively.

`c1cncc(N2CC3CC(C2)CN(C2CCNC2)C3)c1` (centres unmarked): the results for the Ki in assay [1] (read-out: Human α4β2 Ki) and in assay [2] (setting [4]) were 0.16 nM and 24 nM, respectively.

As to `c1cncc(N2CC3CC(C2)CN(C2CCCNCC2)C3)c1` (centres unmarked), the Ki in assay [1] (read-out: Human α4β2 Ki) was found to be 0.45 nM; in assay [2] (setting [4]), 20 nM.

As to `c1cncc(N2CC3CC(C2)CN(C2CNC2)C3)c1`, the Ki in assay [1] came out at 5.8 nM; in assay [2] (setting [3]) it was 550 nM.

As for `CN1CCC(N2CC3CC(CN(c4cccnc4)C3)C2)C1` (centres unmarked), the figures for the Ki in assay [1] and in assay [2] (setting [3]) were 11 nM and 790 nM, respectively.
